Laboratory results taken from ChEMBL document CHEMBL4507268 (2021).

Tests used:
[1] = biological target: Vascular endothelial growth factor receptor 2 (Homo sapiens) (UniProt P35968); settings: Compound concentration 1000.0 nM
[2] = biological target: Mitogen-activated protein kinase 7 (Homo sapiens) (UniProt Q13164); settings: Compound concentration 1000.0 nM
[3] = biological target: T1, Beta-adrenergic receptor kinase 1 (Homo sapiens) (UniProt P25098); settings: Compound concentration 1000.0 nM
T1 sequence (whole entry): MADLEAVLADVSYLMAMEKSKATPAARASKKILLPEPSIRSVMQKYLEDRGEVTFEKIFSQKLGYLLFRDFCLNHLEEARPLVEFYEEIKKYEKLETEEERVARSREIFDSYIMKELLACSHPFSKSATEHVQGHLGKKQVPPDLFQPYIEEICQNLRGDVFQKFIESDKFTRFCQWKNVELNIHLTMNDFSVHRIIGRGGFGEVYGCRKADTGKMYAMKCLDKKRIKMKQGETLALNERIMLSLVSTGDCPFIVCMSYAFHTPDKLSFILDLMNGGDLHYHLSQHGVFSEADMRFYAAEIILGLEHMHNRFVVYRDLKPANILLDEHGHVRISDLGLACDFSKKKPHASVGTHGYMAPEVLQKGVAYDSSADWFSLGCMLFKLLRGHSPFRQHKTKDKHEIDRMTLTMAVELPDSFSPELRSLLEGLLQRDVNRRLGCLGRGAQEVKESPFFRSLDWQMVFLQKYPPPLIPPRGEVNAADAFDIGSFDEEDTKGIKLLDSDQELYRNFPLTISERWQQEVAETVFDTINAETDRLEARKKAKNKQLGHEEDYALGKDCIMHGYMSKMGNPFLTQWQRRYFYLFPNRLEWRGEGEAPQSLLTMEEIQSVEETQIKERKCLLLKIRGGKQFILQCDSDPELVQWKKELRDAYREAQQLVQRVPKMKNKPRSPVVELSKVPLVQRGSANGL

[4] = biological target: T2, Mitogen-activated protein kinase kinase kinase 2 (Homo sapiens) (UniProt Q9Y2U5); settings: Compound concentration 1000.0 nM
T2 sequence (whole entry): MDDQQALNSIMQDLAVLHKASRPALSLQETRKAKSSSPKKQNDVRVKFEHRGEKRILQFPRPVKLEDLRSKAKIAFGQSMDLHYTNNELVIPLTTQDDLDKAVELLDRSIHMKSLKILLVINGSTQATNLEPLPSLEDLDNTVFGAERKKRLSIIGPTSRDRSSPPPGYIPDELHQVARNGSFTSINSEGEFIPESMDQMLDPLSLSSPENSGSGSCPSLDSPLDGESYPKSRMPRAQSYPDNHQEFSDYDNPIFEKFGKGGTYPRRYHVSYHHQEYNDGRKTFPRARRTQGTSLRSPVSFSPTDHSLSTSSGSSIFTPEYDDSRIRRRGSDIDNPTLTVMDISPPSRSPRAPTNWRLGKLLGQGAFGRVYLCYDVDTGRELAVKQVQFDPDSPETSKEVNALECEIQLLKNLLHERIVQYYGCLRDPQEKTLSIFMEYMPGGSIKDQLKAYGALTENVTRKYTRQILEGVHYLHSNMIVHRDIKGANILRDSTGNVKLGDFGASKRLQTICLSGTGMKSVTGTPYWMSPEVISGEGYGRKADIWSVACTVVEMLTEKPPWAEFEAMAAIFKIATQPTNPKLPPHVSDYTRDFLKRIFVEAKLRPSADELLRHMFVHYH

[5] = biological target: Dual specificity mitogen-activated protein kinase kinase 1 (Homo sapiens) (UniProt Q02750); settings: Compound concentration 1000.0 nM
[6] = biological target: T3, Inhibitor of nuclear factor kappa-B kinase subunit alpha (Homo sapiens) (UniProt O15111); settings: Compound concentration 1000.0 nM
T3 sequence (whole entry): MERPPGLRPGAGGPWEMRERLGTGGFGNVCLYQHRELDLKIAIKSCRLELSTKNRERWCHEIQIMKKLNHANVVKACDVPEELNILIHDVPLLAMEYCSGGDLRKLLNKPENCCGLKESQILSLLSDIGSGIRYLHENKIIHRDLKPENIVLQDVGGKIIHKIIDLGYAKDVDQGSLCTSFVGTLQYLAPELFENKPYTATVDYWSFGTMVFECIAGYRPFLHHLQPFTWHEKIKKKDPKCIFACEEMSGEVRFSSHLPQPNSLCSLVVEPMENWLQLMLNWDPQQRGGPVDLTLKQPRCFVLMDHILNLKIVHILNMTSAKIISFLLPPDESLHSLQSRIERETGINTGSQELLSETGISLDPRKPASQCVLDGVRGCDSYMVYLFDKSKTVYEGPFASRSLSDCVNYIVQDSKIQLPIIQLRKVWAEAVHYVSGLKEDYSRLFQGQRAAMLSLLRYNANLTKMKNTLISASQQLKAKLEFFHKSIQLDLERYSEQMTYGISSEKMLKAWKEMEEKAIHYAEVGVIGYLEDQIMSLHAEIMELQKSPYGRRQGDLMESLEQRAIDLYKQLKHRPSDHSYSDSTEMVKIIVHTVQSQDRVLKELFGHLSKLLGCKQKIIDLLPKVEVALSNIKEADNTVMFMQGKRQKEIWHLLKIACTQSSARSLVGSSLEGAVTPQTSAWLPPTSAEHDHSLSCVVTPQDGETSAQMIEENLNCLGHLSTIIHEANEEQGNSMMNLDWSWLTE

[7] = system: eIF-2-alpha kinase GCN2 (Homo sapiens), Q9P2K8 [S808G]; settings: Compound concentration 1000.0 nM
[8] = biological target: Insulin receptor (Homo sapiens) (UniProt P06213); settings: Compound concentration 1000.0 nM
[9] = biological target: Beta-1 adrenergic receptor (Homo sapiens) (UniProt P08588); settings: Compound concentration 10.0 uM
[10] = biological target: D(4) dopamine receptor (Homo sapiens) (UniProt P21917); settings: Compound concentration 10.0 uM
[11] = biological target: Mitogen-activated protein kinase 3 (Homo sapiens) (UniProt P27361); settings: Compound concentration 1000.0 nM
Mitogen-activated protein kinase 3 (Homo sapiens), sequence (P27361 whole entry): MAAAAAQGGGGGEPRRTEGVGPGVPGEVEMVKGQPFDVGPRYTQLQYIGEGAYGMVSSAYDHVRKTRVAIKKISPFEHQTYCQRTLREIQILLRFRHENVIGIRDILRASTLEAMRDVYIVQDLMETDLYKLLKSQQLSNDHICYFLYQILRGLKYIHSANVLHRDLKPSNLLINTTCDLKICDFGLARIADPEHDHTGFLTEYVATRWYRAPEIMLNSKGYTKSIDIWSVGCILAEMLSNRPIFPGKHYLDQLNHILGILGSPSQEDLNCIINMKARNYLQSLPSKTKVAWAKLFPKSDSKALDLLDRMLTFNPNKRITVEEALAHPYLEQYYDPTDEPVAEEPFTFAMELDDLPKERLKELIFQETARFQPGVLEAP

eIF-2-alpha kinase GCN2 (Homo sapiens), Q9P2K8 [S808G], sequence (Q9P2K8 whole entry S808G): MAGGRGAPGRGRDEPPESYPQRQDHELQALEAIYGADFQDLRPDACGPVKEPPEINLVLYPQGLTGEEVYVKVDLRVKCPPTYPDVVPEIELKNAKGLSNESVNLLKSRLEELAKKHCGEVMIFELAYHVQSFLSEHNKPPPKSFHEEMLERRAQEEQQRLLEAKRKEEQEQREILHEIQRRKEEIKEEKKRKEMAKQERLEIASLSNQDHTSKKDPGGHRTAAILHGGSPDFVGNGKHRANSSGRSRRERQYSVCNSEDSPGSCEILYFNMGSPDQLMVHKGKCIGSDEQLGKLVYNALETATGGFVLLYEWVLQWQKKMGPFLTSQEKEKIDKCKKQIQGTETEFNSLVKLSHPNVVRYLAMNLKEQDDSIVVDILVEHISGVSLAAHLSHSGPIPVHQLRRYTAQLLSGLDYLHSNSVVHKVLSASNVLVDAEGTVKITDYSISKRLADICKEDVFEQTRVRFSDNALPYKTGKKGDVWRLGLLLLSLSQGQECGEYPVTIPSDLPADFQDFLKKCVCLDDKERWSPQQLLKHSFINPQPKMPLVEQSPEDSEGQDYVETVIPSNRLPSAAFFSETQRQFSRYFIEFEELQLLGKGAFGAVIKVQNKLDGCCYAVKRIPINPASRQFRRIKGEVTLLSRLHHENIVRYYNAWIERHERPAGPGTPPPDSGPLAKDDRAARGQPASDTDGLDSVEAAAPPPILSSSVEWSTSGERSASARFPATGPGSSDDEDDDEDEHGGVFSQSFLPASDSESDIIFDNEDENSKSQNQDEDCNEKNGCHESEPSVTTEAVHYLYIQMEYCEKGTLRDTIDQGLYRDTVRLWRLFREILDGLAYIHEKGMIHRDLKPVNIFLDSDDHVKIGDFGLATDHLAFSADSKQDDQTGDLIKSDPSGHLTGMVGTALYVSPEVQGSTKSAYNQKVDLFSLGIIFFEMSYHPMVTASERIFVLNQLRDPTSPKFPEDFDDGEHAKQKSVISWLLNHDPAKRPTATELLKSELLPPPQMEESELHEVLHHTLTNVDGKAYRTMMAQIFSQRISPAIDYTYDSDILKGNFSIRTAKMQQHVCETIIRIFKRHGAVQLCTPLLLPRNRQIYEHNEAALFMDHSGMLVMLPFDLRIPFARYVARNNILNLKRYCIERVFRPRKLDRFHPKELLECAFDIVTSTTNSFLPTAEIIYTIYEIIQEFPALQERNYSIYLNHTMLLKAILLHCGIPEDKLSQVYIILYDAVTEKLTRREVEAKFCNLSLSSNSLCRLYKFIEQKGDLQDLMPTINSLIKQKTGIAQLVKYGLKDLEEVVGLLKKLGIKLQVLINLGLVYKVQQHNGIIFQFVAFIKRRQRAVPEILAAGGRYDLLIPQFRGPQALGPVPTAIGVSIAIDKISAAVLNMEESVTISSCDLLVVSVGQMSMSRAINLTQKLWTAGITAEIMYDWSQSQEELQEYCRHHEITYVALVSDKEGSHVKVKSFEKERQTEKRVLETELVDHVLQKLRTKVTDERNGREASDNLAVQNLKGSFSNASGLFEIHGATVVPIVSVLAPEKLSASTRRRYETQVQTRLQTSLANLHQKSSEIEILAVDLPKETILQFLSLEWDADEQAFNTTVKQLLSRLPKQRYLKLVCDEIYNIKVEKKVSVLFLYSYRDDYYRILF
Insulin receptor (Homo sapiens), sequence (P06213 28-758 limits assumed): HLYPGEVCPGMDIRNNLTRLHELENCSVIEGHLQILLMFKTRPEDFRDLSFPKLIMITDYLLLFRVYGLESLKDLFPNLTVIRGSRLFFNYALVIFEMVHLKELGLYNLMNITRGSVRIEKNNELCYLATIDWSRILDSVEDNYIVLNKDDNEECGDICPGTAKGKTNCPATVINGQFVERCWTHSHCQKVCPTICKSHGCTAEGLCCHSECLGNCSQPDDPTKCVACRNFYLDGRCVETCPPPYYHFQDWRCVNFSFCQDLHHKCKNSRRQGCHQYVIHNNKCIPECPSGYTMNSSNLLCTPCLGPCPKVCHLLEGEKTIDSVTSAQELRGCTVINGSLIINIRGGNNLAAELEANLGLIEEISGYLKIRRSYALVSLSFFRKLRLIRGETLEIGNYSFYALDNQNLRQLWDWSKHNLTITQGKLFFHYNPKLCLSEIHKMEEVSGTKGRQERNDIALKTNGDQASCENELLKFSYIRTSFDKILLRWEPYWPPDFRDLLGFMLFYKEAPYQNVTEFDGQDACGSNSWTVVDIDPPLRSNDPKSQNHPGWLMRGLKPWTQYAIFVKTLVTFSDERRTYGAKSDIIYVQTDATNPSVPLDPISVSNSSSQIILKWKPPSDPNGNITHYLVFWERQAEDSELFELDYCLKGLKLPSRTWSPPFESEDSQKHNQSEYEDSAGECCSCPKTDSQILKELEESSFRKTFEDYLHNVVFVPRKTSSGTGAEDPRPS
Insulin receptor (Homo sapiens), sequence (P06213 763-1382 limits assumed): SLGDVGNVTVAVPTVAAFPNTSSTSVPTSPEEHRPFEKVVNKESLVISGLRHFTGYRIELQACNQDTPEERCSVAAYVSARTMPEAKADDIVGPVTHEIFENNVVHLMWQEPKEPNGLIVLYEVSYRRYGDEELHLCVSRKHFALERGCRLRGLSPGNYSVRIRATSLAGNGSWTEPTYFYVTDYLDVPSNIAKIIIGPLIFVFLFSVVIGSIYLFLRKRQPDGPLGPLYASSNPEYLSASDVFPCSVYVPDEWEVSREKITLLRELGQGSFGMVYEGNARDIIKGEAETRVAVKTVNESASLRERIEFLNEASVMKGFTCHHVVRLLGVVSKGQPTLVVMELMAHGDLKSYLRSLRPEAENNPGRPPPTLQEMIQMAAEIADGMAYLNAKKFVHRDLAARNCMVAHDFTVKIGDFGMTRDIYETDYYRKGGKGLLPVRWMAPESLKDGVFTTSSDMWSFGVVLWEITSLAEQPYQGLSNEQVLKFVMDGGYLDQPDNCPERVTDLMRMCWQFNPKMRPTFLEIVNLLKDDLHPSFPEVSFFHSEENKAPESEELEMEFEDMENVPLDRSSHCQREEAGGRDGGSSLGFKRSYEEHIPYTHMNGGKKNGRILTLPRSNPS
D(4) dopamine receptor (Homo sapiens), sequence (P21917 whole entry): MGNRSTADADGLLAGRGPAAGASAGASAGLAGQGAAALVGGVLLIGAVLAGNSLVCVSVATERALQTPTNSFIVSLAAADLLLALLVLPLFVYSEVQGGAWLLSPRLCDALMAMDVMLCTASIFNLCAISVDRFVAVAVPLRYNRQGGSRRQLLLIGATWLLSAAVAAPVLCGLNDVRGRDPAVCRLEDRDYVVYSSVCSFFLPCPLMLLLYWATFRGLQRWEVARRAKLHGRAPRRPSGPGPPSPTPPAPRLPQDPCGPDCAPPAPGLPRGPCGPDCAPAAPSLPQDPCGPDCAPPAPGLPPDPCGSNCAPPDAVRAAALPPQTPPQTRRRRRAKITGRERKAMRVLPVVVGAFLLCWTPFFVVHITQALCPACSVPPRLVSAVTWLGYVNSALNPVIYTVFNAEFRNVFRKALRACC
Mitogen-activated protein kinase 7 (Homo sapiens), sequence (Q13164 2-816 limits assumed): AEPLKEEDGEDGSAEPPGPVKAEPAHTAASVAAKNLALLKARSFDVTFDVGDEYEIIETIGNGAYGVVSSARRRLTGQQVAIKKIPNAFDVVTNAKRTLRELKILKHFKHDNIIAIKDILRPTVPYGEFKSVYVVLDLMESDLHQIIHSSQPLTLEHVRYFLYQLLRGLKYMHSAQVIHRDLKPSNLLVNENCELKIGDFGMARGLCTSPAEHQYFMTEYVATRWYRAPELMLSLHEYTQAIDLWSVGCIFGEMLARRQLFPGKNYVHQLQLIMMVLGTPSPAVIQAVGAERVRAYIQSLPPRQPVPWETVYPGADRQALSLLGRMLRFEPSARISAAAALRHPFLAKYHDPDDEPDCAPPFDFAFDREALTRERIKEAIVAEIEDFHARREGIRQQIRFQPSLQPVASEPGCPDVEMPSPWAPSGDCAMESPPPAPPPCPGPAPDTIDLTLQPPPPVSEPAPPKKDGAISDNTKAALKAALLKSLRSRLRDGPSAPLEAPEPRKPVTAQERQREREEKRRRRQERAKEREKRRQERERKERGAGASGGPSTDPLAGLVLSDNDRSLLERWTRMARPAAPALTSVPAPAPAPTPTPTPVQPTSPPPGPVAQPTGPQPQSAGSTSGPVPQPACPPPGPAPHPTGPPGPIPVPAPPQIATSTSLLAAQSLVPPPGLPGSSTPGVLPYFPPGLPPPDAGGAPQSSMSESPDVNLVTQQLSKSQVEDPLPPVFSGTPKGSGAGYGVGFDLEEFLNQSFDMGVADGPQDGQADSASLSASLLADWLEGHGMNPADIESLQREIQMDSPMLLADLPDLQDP
Dual specificity mitogen-activated protein kinase kinase 1 (Homo sapiens), sequence (Q02750 whole entry): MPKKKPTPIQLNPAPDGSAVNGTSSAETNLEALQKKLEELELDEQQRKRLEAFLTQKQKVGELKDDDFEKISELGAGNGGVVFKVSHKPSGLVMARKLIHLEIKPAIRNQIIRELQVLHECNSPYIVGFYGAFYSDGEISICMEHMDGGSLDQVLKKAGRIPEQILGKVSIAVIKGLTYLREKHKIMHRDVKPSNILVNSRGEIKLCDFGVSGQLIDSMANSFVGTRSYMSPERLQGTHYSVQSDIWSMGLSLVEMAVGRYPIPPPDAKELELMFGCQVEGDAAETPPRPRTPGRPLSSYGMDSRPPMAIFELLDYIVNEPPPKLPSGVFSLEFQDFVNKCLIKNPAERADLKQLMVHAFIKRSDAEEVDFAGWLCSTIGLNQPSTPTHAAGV

Row | SMILES | residual activity [1] [%] | residual activity [2] [%] | residual activity [3] [%] | residual activity [4] [%] | residual activity [5] [%] | residual activity [6] [%] | residual activity [7] [%] | residual activity [8] [%] | inhibition [9] [%] | inhibition [10] [%] | residual activity [11] [%]
1 | Cc1nc(C2CCN(C(=O)c3ccc(OC(F)(F)F)cc3N)CC2)c2ncc(N3CCN(C)CC3)cc2n1 [BAY-693] | 93 | 22 | 92 | 100 | 85 | 84 | 90 | 93 | 17.9 | 1.98 | 98
2 | CN1CCN(c2cnc3c(C4CCN(C(=O)c5ccc(OC(F)(F)F)cc5N)CC4)ncnc3c2)CC1 [BAY-885] | 100 | 0.1 | 100 | 100 | 95 | 100 | 99 | 88 | 12.6 | 12.7 | 100
